The values that follow come from patent US11560385B2, “Proteasome activity enhancing compounds” (Proteostasis Therapeutics, Inc., priority 2018, dated 2023).

The structures appear in SMILES notation. pIC50: −log10 of the molar value.

This experiment concerns the target USP14 (Homo sapiens (Human), UniProt P54578). Nature of the experiment: Usp14 inhibition assay (Example 57B, B-series compounds). In kind it is biochemical. The note with it: IC50 class; average value from a minimum of two experimental determinations. An excerpt: Example 57B: Usp14 Inhibition Assay
The IC50 values in the Table below represent the average value from a minimum of two experimental determinations.

Sequence of USP14 (P54578 whole entry, looked up): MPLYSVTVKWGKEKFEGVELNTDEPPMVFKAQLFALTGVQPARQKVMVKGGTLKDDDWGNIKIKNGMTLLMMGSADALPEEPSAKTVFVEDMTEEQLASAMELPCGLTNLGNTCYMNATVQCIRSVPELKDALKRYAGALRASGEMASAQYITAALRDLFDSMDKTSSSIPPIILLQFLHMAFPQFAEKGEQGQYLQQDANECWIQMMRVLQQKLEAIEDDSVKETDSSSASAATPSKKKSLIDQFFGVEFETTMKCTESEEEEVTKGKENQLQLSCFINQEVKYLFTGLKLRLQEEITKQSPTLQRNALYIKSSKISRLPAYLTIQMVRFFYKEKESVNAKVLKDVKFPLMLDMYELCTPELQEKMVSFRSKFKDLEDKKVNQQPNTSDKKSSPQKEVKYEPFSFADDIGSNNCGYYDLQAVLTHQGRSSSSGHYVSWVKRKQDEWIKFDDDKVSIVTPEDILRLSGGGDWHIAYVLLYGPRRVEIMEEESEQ

Compound `Cc1c(C(=O)CN2C3CCC2[C@@H](O)C3)cc(C#CC2COC2)n1-c1ccc(C#N)cc1` (mixture of isomers) [Example 57B, (±)-4-(3-(2-((2R)-2-Hydroxy-7-azabicyclo[2.2.1]heptan-7-yl)acetyl)-2-methyl-5-(oxetan-3-ylethynyl)-1H-pyrrol-1-yl)benzonitrile] had a pIC50 of 6.30 to 7.30.
`Cc1cc(C(=O)CN2C3CCC2[C@@H](O)C3)c(C)n1-c1ccc(C#N)cc1` (mixture of isomers) [Example 64B, (±)-4-(3-(2-((2R)-2-Hydroxy-7-azabicyclo[2.2.1]heptan-7-yl)acetyl)-2,5-dimethyl-1H-pyrrol-1-yl)benzonitrile] gave a negative-log IC50 (pIC50) of 6.30 to 7.30.
Regarding `CO[C@H]1C[C@H]2CC[C@@H]1N2CC(=O)c1cc(C)n(-c2ccc(C#N)cc2)c1C` (racemic) [Example 70B, (±)-4-(3-(2-((1R,2R,4S)-2-Methoxy-7-azabicyclo[2.2.1]heptan-7-yl)acetyl)-2,5-dimethyl-1H-pyrrol-1-yl)benzonitrile], the pIC50 was 6.30 to 7.30.
Consider `Cc1cc(C(=O)CN2[C@@H]3CC[C@H]2[C@@](C)(O)C3)c(C)n1-c1ccc(C#N)cc1` (racemic) [Example 71B, (±)-4-(3-(2-((1R,2R,4S)-2-Hydroxy-2-methyl-7-azabicyclo[2.2.1]heptan-7-yl)acetyl)-2,5-dimethyl-1H-pyrrol-1-yl)benzonitrile], for which the pIC50 was below 6.30.
The same measure for `Cc1cc(C(=O)CN2[C@@H]3CC[C@H]2[C@](O)(C(C)(C)C)C3)c(C)n1-c1ccc(C#N)cc1` (racemic) [Example 72B, (±)-4-(3-(2-((1R,2S,4S)-2-(tert-Butyl)-2-hydroxy-7-azabicyclo[2.2.1]heptan-7-yl)acetyl)-2,5-dimethyl-1H-pyrrol-1-yl)benzonitrile]: below 6.30.
Turning to `Cc1cc(C(=O)CN2[C@@H]3CC[C@H]2[C@](O)(C(F)(F)F)C3)c(C)n1-c1ccc(C#N)cc1` (racemic) [Example 73B, (±)-4-(3-(2-((1R,2R,4S)-2-Hydroxy-2-(trifluoromethyl)-7-azabicyclo[2.2.1]heptan-7-yl)acetyl)-2,5-dimethyl-1H-pyrrol-1-yl)benzonitrile], the pIC50 is below 6.30.
For the compound `Cc1c(C(=O)CN2C3CCC2[C@@H](O)C3)c(C)n(-c2ccc(C#N)cc2)c1C` (mixture of isomers) [Example 76B, (±)-4-(3-(2-((2R)-2-Hydroxy-7-azabicyclo[2.2.1]heptan-7-yl)acetyl)-2,4,5-trimethyl-1H-pyrrol-1-yl)benzonitrile], the negative-log IC50 (pIC50) is 6.30 to 7.30.
The same measure for `Cc1c(Cl)c(C(=O)CN2C3CCC2[C@@H](O)C3)c(C)n1-c1ccc(C#N)cc1` (mixture of isomers) [Example 77B, (±)-4-(3-Chloro-4-(2-((2R)-2-hydroxy-7-azabicyclo[2.2.1]heptan-7-yl)acetyl)-2,5-dimethyl-1H-pyrrol-1-yl)benzonitrile]: 6.30 to 7.30; for `Cc1c(F)c(C(=O)CN2C3CCC2[C@@H](O)C3)c(C)n1-c1ccc(C#N)cc1` (mixture of isomers) [Example 78B, (±)-4-(3-Fluoro-4-(2-((2R)-2-hydroxy-7-azabicyclo[2.2.1]heptan-7-yl)acetyl)-2,5-dimethyl-1H-pyrrol-1-yl)benzonitrile]: 6.30 to 7.30; for `Cc1c(C(=O)CN2C3CCC2[C@@H](O)C3)c(C(F)(F)F)c(C)n1-c1ccc(C#N)cc1` (mixture of isomers) [Example 79B, (±)-4-(3-(2-((2R)-2-Hydroxy-7-azabicyclo[2.2.1]heptan-7-yl)acetyl)-2,5-dimethyl-4-(trifluoromethyl)-1H-pyrrol-1-yl)benzonitrile]: below 6.30.
Take `Cc1cc(C(=O)CN2[C@H]3CCC[C@@H]2[C@H](O)C3)c(C)n1-c1ccc(C#N)cc1` (racemic) [Example 82B, (±)-4-(3-(2-((1S,5R,6R)-6-Hydroxy-8-azabicyclo[3.2.1]octan-8-yl)acetyl)-2,5-dimethyl-1H-pyrrol-1-yl)benzonitrile]: the negative logarithm of the IC50 (pIC50) was 6.30 to 7.30.
